Assay [1] has as its system pCHK1 (S345) in Colo320 DM cells. As to the kind of experiment: CHK1 cellular activity (phospho-CHK1 AlphaLisa). The format is cell-based, human. Particulars: compound overnight (approximately 16 hours). The procedure:
Phospho-CHK1 cellular activity was measured as a marker of replication stress which is a consequence of RNR inhibition.
Colo320 DM cells (ATCC #CCL-220, derived from human colorectal adenocarcinoma, Dukes' type C) were seeded on a 96-well cell culture treated assay plate at a density of 50,000 cells/well in 200 μL of RPMI-1640 media supplemented with 10% Fetal Bovine Serum and incubated at 37 degrees Celsius overnight. The following day, test compound dilutions were added directly to the plated cells by a Tecan digital dispenser to a final DMSO concentration of <0.5% and incubated at 37 degrees Celsius overnight (approximately 16 hours). The following day all culture media is removed from the cells. 75 μL of 1× AlphaLisa lysis buffer is added to each well and plates are agitated on a shaker for 30 minutes at room temperature. The lysis of cells and detection of pCHK1 (S345) are performed with reagents contained within the AlphaLisa Sure Fire assay kit (Perkin Elmer #ALSU-PCHK1-A) according to the manufacturer's instructions. 10 μL of each lysate was then transferred to a white, 384-well assay plate (Perkin Elmer #6008280). 5 μL of Acceptor mix was then added to each well of lysate in the white, 384-well assay plate and incubated in the dark at room temperature for 60 minutes. 5 μL of Donor mix was then added to each well of the white, 384-well assay plate in subdued light and incubated at room temperature for 60 minutes. Plates are read on an Alpha Technology-compatible plate reader using standard AlphaLisa settings.
Background: Alpha assays give light when donor and acceptor beads are brought close together.

A further assay has as its target RNR (RNR1:RNR2) (Homo sapiens (Human), UniProt P23921+P31350). As to the kind of experiment: RNR enzyme activity, rapid-fire mass spectrometry (RFMS) assay. Particulars: [RNR] 50 nM, 1:1 RNR1:RNR2, [CDP] 5 μM, [ATP] 1 mM, 37° C., 45 min. The format is biochemical. The method, then: A rapid-fire mass spectrometry (RFMS) assay was used to assess RNR enzyme activity using a 384 well plate and a robotic platform.
The plate layout included two validated reference compounds (Triapine (3-AP) and Hydroxyurea (HU)): • A dose response in duplicate; top concentration: 5 μM (3-AP) and 250 μM (HU), semi-log • dilutions. • Spike wells in triplicate randomly spotted at four concentrations: • 250 μM, 100 μM, 30 μM and 2 μM for HU • 5 μM, 2 μM, 0.6 μM and 0.04 μM for 3-AP
First, the multidrop pipes were saturated for 30 minutes with enzymatic solution. Then 30 μL of Stop solution was distributed in column 24. Next, 15 μL of enzyme was distributed in column 1 to 24. Next, a pre-incubation step of 15 minutes at room temperature occurred, followed by distribution of 15 μL of substrate solution (column 1 to 24). Next, the plate was incubated for 45 minutes at 37° C. 30 μL of Stop solution was distributed to columns 1 to 23.
The final parameters for the enzyme reactions were: • Incubation: 37° C., 45 min • [CDP]: 5 μM; [ATP]: 1 mM; [NADPH]: No • [RNR]final: 50 nM with 1:1 (RNR1:RNR2) ratio • Final volume: 30 μL • Stop solution: 6% HCOOH containing 2 μM of 15
The compounds were screened at concentrations from 10 nM to 30 μM.

SMILES strings stand for the structures.

These results are taken from US20240158383A1, “RIBONUCLEOTIDE REDUCTASE (RNR) INHIBITORS AND USES THEREOF” (Boundless Bio, Inc., priority 2021, published 2024).

As a reminder, the IC50 is the concentration that gives 50% inhibition. Higher therefore signals a need for much substance.

Sequence of RNR (RNR1:RNR2) (P23921 whole entry): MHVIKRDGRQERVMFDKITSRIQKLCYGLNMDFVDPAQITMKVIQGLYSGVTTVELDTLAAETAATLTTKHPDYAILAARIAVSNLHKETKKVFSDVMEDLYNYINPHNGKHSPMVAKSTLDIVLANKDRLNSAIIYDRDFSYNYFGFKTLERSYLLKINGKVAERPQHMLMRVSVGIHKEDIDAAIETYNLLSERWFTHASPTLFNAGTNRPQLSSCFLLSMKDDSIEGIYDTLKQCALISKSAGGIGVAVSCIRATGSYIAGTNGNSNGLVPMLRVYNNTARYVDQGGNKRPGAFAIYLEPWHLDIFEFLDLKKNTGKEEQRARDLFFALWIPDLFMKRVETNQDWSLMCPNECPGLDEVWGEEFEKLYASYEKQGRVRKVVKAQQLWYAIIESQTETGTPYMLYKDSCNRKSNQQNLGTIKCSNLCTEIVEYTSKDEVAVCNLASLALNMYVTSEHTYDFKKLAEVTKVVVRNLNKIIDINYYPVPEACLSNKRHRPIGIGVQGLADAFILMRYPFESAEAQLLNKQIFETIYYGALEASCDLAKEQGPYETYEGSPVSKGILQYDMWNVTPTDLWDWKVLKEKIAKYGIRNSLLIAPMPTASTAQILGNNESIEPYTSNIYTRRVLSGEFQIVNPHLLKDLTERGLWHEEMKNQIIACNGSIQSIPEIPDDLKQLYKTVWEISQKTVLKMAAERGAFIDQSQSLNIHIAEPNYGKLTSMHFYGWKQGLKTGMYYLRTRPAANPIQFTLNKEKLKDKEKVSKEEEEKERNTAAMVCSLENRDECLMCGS
Sequence of RNR (RNR1:RNR2) (P31350 whole entry): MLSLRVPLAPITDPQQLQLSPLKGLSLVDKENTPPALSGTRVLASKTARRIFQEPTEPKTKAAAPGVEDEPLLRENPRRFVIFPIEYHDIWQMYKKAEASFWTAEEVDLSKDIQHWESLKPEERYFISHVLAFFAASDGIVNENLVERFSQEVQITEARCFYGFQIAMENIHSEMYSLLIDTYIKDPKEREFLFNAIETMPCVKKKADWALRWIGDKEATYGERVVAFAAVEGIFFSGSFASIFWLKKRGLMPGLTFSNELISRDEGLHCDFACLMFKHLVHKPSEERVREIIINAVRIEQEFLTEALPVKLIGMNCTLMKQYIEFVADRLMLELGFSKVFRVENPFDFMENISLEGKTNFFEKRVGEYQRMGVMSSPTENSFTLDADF

Regarding `Cc1ccc(F)c([C@@H](C)[C@H](NS(=O)(=O)c2cc(C(C)(C)O)c(Cl)cc2C(N)=O)c2nn[nH]n2)c1C` (racemic) [Example 13, rac-5-chloro-2-(N-((1R,2S)-2-(6-fluoro-2,3-dimethylphenyl)-1-(2H-tetrazol-5-yl)propyl)sulfamoyl)-4-(2-hydroxypropan-2-yl)benzamide], the half-maximal inhibitory concentration (IC50) in assay [1] (Homo sapiens, COLO 320DM, 16 h) is 50 to 100 µM; against RNR (RNR1:RNR2), no more than 0.1 µM. As for `COC(=O)Cc1cc(Cl)ccc1S(=O)(=O)N[C@H](c1nn[nH]n1)[C@H](C)c1c(F)ccc(C)c1C` (racemic) [Example 14, rac-methyl 2-(5-chloro-2-(N-((1R,2S)-2-(6-fluoro-2,3-dimethylphenyl)-1-(2H-tetrazol-5-yl)propyl)sulfamoyl)phenyl)acetate], the IC50 lay within 10 to 30 µM in assay [1] (Homo sapiens, COLO 320DM, 16 h) and 0.1 to 1 µM at RNR (RNR1:RNR2). For the molecule `Cc1ccc(F)c([C@@H](C)[C@H](NS(=O)(=O)c2ncc(Br)cc2C(N)=O)c2nn[nH]n2)c1C` (racemic) [Example 15, rac-5-bromo-2-(N-((1R,2S)-2-(6-fluoro-2,3-dimethylphenyl)-1-(2H-tetrazol-5-yl)propyl)sulfamoyl)nicotinamide], the IC50 is 50 to 100 µM in assay [1] (Homo sapiens, COLO 320DM, 16 h) and no more than 0.1 µM at RNR (RNR1:RNR2). The matching figures for `COc1c(S(=O)(=O)N[C@H](c2nn[nH]n2)[C@H](C)c2c(F)ccc(C)c2C)ccc(Cl)c1[C@H](C)O` (racemic) [Example 16, rac-4-chloro-N-((1R,2S)-2-(6-fluoro-2,3-dimethyphenyl)-1-(2H-tetrazol-5-yl)propyl)-3-((R)-1-hydroxyethyl)-2-methoxybenzenesulfonamide]: 10 to 30 µM and no more than 0.1 µM. As for `COc1c(S(=O)(=O)N[C@H](c2nn[nH]n2)[C@H](C)c2c(F)ccc(C)c2C)ccc(Cl)c1[C@@H](C)O` (racemic) [Example 17, rac-4-chloro-N-((1R,2S)-2-(6-fluoro-2,3-dimethylphenyl)-1-(2H-tetrazol-5-yl)propyl)-3-((S)-1-hydroxyethyl)-2-methoxybenzenesulfonamide], the IC50 in assay [1] (Homo sapiens, COLO 320DM, 16 h) is 10 to 30 µM; against RNR (RNR1:RNR2), no more than 0.1 µM.

Turning to `Cc1ccc(F)c([C@@H](C)[C@H](NS(=O)(=O)c2ccc(C#N)cc2OC(F)F)c2nn[nH]n2)c1C` (racemic) [Example 69, rac-4-cyano-2-(difluoromethxoy)-N-((1R,2S)-2-(6-fluoro-2,3-dimethylphenyl)-1-(2H-tetrazol-5-yl)propyl)benzenesulfonamide], the IC50 in assay [1] (Homo sapiens, COLO 320DM, 16 h) was in the range of 50 to 100 µM; against RNR (RNR1:RNR2), 0.1 to 1 µM.

In the case of `COc1c(S(=O)(=O)N[C@H](c2nn[nH]n2)[C@H](C)c2c(F)ccc(C)c2C)ccc(C#N)c1F` (racemic) [Example 70, rac-4-cyano-3-fluoro-N-((1R,2S)-2-(6-fluoro-2,3-dimethylphenyl)-1-(2H-tetrazol-5-yl)propyl)-2-methoxybenzenesulfonamide], the IC50 in assay [1] (Homo sapiens, COLO 320DM, 16 h) lay within 50 to 100 µM; on RNR (RNR1:RNR2) it was 0.1 to 1 µM. For the molecule `Cc1ccc(F)c([C@@H](C)[C@H](NS(=O)(=O)c2ccc(Cl)cc2N(C)C)c2nn[nH]n2)c1C` (racemic) [Example 71, rac-4-chloro-2-(dimethylamino)-N-((1R,2S)-2-(6-fluoro-2,3-dimethylphenyl)-1-(2H-tetrazol-5-yl)propyl)benzenesulfonamide], the IC50 in assay [1] (Homo sapiens, COLO 320DM, 16 h) was no more than 10 µM; at RNR (RNR1:RNR2), no more than 0.1 µM. As for `Cc1ccc(F)c([C@@H](C)[C@H](NS(=O)(=O)c2ccc(Cl)c3c2OCC[C@]3(C)O)c2nn[nH]n2)c1C` (single isomer, unassigned) [Example 3], the IC50 was 10 to 30 µM in assay [1] (Homo sapiens, COLO 320DM, 16 h) and no more than 0.1 µM against RNR (RNR1:RNR2).

On to `Cc1ccc(F)c([C@@H](C)[C@H](NS(=O)(=O)c2ccc(Cl)c3c2OCC[C@@]3(C)O)c2nn[nH]n2)c1C` (single isomer, unassigned) [Example 4], for which the IC50 is 10 to 30 µM in assay [1] and no more than 0.1 µM against RNR (RNR1:RNR2). For `COc1cc(Cl)ccc1S(=O)(=O)N[C@H](c1nn[nH]n1)[C@H](C)c1c(F)ccc(C)c1C` [Example 1, 4-chloro-N-[(1S,2R)-2-(6-fluoro-2,3-dimethylphenyl)-1-(2H-1,2,3,4-tetrazol-5-yl)propyl]-2-methoxybenzene-1-sulfonamide], the IC50 in assay [1] (Homo sapiens, COLO 320DM, 16 h) was no more than 10 µM; against RNR (RNR1:RNR2) it was no more than 0.1 µM.

As for `Cc1ccc(F)c([C@@H](C)[C@H](NS(=O)(=O)c2ccc(Cl)cc2C(N)=O)c2nn[nH]n2)c1C` [Example 2, 5-chloro-2-(N-((1S,2R)-2-(6-fluoro-2,3-dimethylphenyl)-1-(2H-tetrazol-5-yl)propyl)sulfamoyl)benzamide], the concentration for half-maximal inhibition (IC50) in assay [1] (Homo sapiens, COLO 320DM, 16 h) is 50 to 100 µM; on RNR (RNR1:RNR2), no more than 0.1 µM. For the molecule `Cc1ccc(F)c([C@@H](C)[C@H](NS(=O)(=O)c2ccc(Cl)cc2C#N)c2nn[nH]n2)c1C` [Example 5, 4-chloro-2-cyano-N-((1S2R)-2-(6-fluoro-2,3-dimethylphenyl)-1-(2H-tetrazol-5-yl)propyl)benzenesulfonamide], the IC50 in assay [1] (Homo sapiens, COLO 320DM, 16 h) was in the range of 50 to 100 µM; at RNR (RNR1:RNR2), 0.1 to 1 µM. In the case of `Cc1ccc(F)c([C@@H](C)[C@H](NS(=O)(=O)c2ccc(Cl)cc2NC(C)C)c2nn[nH]n2)c1C` [Example 6, 4-chloro-N-((1S,2R)-2-(6-fluoro-2,3-dimethylphenyl)-1-(2H-tetrazol-5-yl)propyl)-2-(isopropylamino)benzenesulfonamide], the IC50 in assay [1] (Homo sapiens, COLO 320DM, 16 h) lay within 50 to 100 µM. Turning to `Cc1ccc(F)c([C@@H](C)[C@H](NS(=O)(=O)c2ccc(Cl)c3c2OCC[C@@]3(C)O)c2nn[nH]n2)c1C` [Example 7, 5-((1S,2R)-1-(((R)-5-chloro-4-hydroxy-4-methylchromane)-8-sulfonamido)-2-(6-fluoro-2,3-dimethylphenyl)propyl)tetrazol-2-ide], the values for the IC50 (in assay [1]; on RNR (RNR1:RNR2)) were 30 to 50 µM and no more than 0.1 µM, respectively. Regarding `Cc1ccc(F)c([C@H](C)[C@H](c2nn[nH]n2)c2c(S(N)(=O)=O)ccc(Cl)c2C#N)c1C` [Example 51, 4-chloro-3-cyano-2-((1S,2R)-2-(6-fluoro-2,3-dimethylphenyl)-1-(2H-tetrazol-5-yl)propyl)benzenesulfonamide], at RNR (RNR1:RNR2), the IC50 was 0.1 to 1 µM. On to `Cc1ccc(F)c(S(=O)(=O)N[C@H](c2nn[nH]n2)[C@H](C)c2c(F)ccc(C)c2C)c1` [Example 52, 2-fluoro-N-((1S,2R)-2-(6-fluoro-2,3-dimethylpehnyl)-1-(2H-tetrazol-5-yl)propyl)-5-methylbenzenesulfonamide], for which, at RNR (RNR1:RNR2), the IC50 is 1 to 5 µM. For `C=Cc1cc(Cl)ccc1S(=O)(=O)N[C@H](c1nn[nH]n1)[C@H](C)c1c(F)ccc(C)c1C` [Example 63, 4-chloro-N-((1S,2R)-2-(6-fluoro-2,3-dimethylphenyl)-1-(2H-tetrazol-5-yl)propyl)-2-vinylbenzenesulfonamide], in assay [1] (Homo sapiens, COLO 320DM, 16 h), the IC50 lay in the range of 30 to 50 µM.

For the molecule `Cc1ccc(F)c([C@@H](C)[C@H](NS(=O)(=O)c2ccc(Cl)cc2Br)c2nn[nH]n2)c1C` [Example 65, 2-bromo-4-chloro-N-((1S,2R)-2-(6-fluoro-2,3-dimethylphenyl)-1-(2H-tetrazol-5-yl)propyl)benzenesulfonamide], the IC50 in assay [1] (Homo sapiens, COLO 320DM, 16 h) lay within 10 to 30 µM. On to `Cc1ccc(F)c([C@@H](C)[C@H](NS(=O)(=O)c2ccc(Cl)c([C@@H](F)C(=O)N(C)C)c2)c2nn[nH]n2)c1C` [Example 66, (R)-2-(2-chloro-5-(N-((1S,2R)-2-(6-fluoro-2,3-dimethylphenyl)-1-(2H-tetrazol-5-yl)propyl)sulfamoyl)phenyl)-2-fluoro-N,N-dimethylacetamide], for which the concentration for half-maximal inhibition (IC50) in assay [1] (Homo sapiens, COLO 320DM, 16 h) lay within 50 to 100 µM. The molecule `Cc1ccc(F)c([C@@H](C)[C@H](NS(=O)(=O)c2ccc(Cl)c([C@H](F)C(=O)N(C)C)c2)c2nn[nH]n2)c1C` [Example 67, (S)-2-(2-chloro-5-(N-((1S,2R)-2-(6-fluoro-2,3-dimethylphenyl)-1-(2H-tetrazol-5-yl)propyl)sulfamoyl)phenyl)-2-fluoro-N,N-dimethylacetamide] registered an IC50 in assay [1] (Homo sapiens, COLO 320DM, 16 h) of 50 to 100 µM. The same measure, in the same setting: for `Cc1ccc(F)c([C@@H](C)[C@H](NS(=O)(=O)c2ccc(Cl)cc2C(=O)N(C)C)c2nn[nH]n2)c1C` [Example 68, 5-chloro-2-(N-((1S,2R)-2-(6-fluoro-2,3-dimethylphenyl)-1-(2H-tetrazol-5-yl)propyl)sulfamoyl)-N,N-dimethylbenzamide] the value was 50 to 100 µM.
